Results published in patent US20200222474A1, “COMPOSITIONS AND METHODS FOR INCREASING PHYTOCHEMICAL BIOAVAILABLITY AND BIOACTIVITY” (North Carolina State University, priority 2017, published 2020).

System: L. acidophilus NCFM
Experiment: RNA-seq transcriptional analysis of L. acidophilus NCFM growing on plant glycosides
Type: cell-based, Lactobacillus acidophilus
[1] = LBA1955 Transcription regulator family protein, COG K
[2] = gene LBA0046 (Hypothetical protein)
[3] = gene LBA0149 (Putative nucleotide-binding protein)
[4] = gene LBA0263 (Hypothetical protein)
[5] = gene LBA0282 (Hypothetical protein)
[6] = gene LBA0327 (Replication protein)
[7] = gene LBA0328 (Hypothetical protein)
[8] = gene LBA0330 (Hypothetical protein)
[9] = gene LBA0457 (Hypothetical protein)
[10] = gene LBA0485 (Hypothetical protein)
[11] = gene LBA0486 (Hypothetical protein)
[12] = gene LBA0487 (Hypothetical protein.)
[13] = gene LBA0492 (Hypothetical protein)
[14] = gene LBA0541 (Cadmium-transporting ATPase)
[15] = gene LBA0542 (Putative heavy-metal-transporting alpase)
[16] = gene LBA0543 (Hypothetical protein)
[17] = gene LBA0544 (Transcriptional regulator)
[18] = gene LBA0555 (Myosin-crossreactive antigen)
[19] = gene LBA0564 (HAD family hydrolase)
[20] = gene LBA0574 (ABC multi drug exporter)
[21] = gene LBA0575 (ABC multi drug exporter)
[22] = gene LBA0604 (Immunity protein)
[23] = gene LBA0605 (Putative hydrolase)
[24] = gene LBA0608 (Hypothetical protein)
[25] = gene LBA0631 (Hypothetical protein)
[26] = gene LBA0649 (Myosin-crossreactive antigen)
[27] = gene LBA0728 (Hypothetical protein LBA0728)
[28] = gene LBA1025 (Aldo/keto reductase family oxidoreductase)
[29] = gene LBA1026 (Aldo/keto reduetase family oxidoreductase)
[30] = gene LBA1206 (Hypothetical protein)
[31] = gene LBA1401 (Peroxidase (Npx))
[32] = gene LBA1435 (Hypothetical protein)
[33] = gene LBA1455 (Putative surface layer protein)
[34] = gene LBA1656 (Hypothetical protein)
[35] = gene LBA1675 (Hypothetical protein)
[36] = gene LBA1676 (ATP-dependent helicase)
[37] = gene LBA1683 (Putative magnesium-transporting atpase)
[38] = gene LBA1704 (N-Acetylmuramic acid-6-phosphate etherase)
[39] = gene LBA1740 (Hypothetical protein)
[40] = gene LBA1752 (Hypothetical protein)
[41] = gene LBA1769 (Hypothetical protein)
[42] = gene LBA1793 (Hypothetical protein)
[43] = gene LBA1869 (Beta-phosphoglueomutase)
[44] = gene LBA1895 (Hypothetical protein)

OC[C@H]1O[C@@H](O[C@H]2[C@H](O)[C@@H](O)[C@@H](O)O[C@@H]2CO)[C@H](O)[C@@H](O)[C@H]1O [Lac]
Log2 differential normalized TPM ratio compared to glucose (LBA1878 Glycerol kinase, COG C): 0 | Transcripts per million (rpm) (LBA1878 Glycerol kinase, COG C): 8.9 rpm | Log2 differential normalized TPM ratio compared to glucose [1]: −0.4 | Transcripts per million (rpm) [1]: 403.9 rpm | Log2 differential normalized TPM ratio compared to glucose [2]: 0.7 | Transcripts per million (rpm) [2]: 506.3 rpm | Log2 differential normalized TPM ratio compared to glucose [3]: 0.8 | Transcripts per million (rpm) [3]: 850.2 rpm | Log2 differential normalized TPM ratio compared to glucose [4]: 0.7 | Transcripts per million (rpm) [4]: 27 rpm | Log2 differential normalized TPM ratio compared to glucose [5]: 0.6 | Transcripts per million (rpm) [5]: 32.7 rpm | Log2 differential normalized TPM ratio compared to glucose [6]: 0.2 | Transcripts per million (rpm) [6]: 9.5 rpm | Log2 differential normalized TPM ratio compared to glucose [7]: −0.1 | Transcripts per million (rpm) [7]: 13.2 rpm | Log2 differential normalized TPM ratio compared to glucose [8]: 0.3 | Transcripts per million (rpm) [8]: 26.6 rpm | Log2 differential normalized TPM ratio compared to glucose [9]: 1 | Transcripts per million (rpm) [9]: 977.4 rpm | Log2 differential normalized TPM ratio compared to glucose [10]: 2.4 | Transcripts per million (rpm) [10]: 1078 rpm | Log2 differential normalized TPM ratio compared to glucose [11]: 2.8 | Transcripts per million (rpm) [11]: 1593.4 rpm | Log2 differential normalized TPM ratio compared to glucose [12]: 1.3 | Transcripts per million (rpm) [12]: 82.6 rpm | Log2 differential normalized TPM ratio compared to glucose [13]: 2.4 | Transcripts per million (rpm) [13]: 44.2 rpm | Log2 differential normalized TPM ratio compared to glucose [14]: 2 | Transcripts per million (rpm) [14]: 167.4 rpm | Log2 differential normalized TPM ratio compared to glucose [15]: 2.2 | Transcripts per million (rpm) [15]: 409.6 rpm | Log2 differential normalized TPM ratio compared to glucose [16]: 2.3 | Transcripts per million (rpm) [16]: 345.9 rpm | Log2 differential normalized TPM ratio compared to glucose [17]: 2 | Transcripts per million (rpm) [17]: 416.6 rpm | Log2 differential normalized TPM ratio compared to glucose [18]: 1.9 | Transcripts per million (rpm) [18]: 165.8 rpm | Log2 differential normalized TPM ratio compared to glucose [19]: 0.5 | Transcripts per million (rpm) [19]: 1.5 rpm | Log2 differential normalized TPM ratio compared to glucose [20]: 0.3 | Transcripts per million (rpm) [20]: 109.5 rpm | Log2 differential normalized TPM ratio compared to glucose [21]: 0.2 | Transcripts per million (rpm) [21]: 93 rpm | Log2 differential normalized TPM ratio compared to glucose [22]: 0.5 | Transcripts per million (rpm) [22]: 20.8 rpm | Log2 differential normalized TPM ratio compared to glucose [23]: 1 | Transcripts per million (rpm) [23]: 5.5 rpm | Log2 differential normalized TPM ratio compared to glucose [24]: 1.1 | Transcripts per million (rpm) [24]: 75.1 rpm | Log2 differential normalized TPM ratio compared to glucose [25]: 3.1 | Transcripts per million (rpm) [25]: 10677.4 rpm | Log2 differential normalized TPM ratio compared to glucose [26]: 0.7 | Transcripts per million (rpm) [26]: 65.3 rpm | Log2 differential normalized TPM ratio compared to glucose [27]: 1.8 | Transcripts per million (rpm) [27]: 8.5 rpm | Transcripts per million (rpm) (gene LBA0802 (Hypothetical protein)): 40.6 rpm | Log2 differential normalized TPM ratio compared to glucose (gene LBA0861 (Polyferredoxin)): 0.5 | Transcripts per million (rpm) (gene LBA0861 (Polyferredoxin)): 272.1 rpm | Log2 differential normalized TPM ratio compared to glucose (gene LBA1023 (Oxidoreductase)): 0.3 | Transcripts per million (rpm) (gene LBA1023 (Oxidoreductase)): 213.6 rpm | Log2 differential normalized TPM ratio compared to glucose [28]: 0 | Transcripts per million (rpm) [28]: 31.7 rpm | Log2 differential normalized TPM ratio compared to glucose [29]: 0.4 | Transcripts per million (rpm) [29]: 43.3 rpm | Log2 differential normalized TPM ratio compared to glucose (gene LBA1027 (Oxidoreductase)): 1.5 | Transcripts per million (rpm) (gene LBA1027 (Oxidoreductase)): 1733.7 rpm | Log2 differential normalized TPM ratio compared to glucose [30]: 1.2 | Transcripts per million (rpm) [30]: 302.8 rpm | Log2 differential normalized TPM ratio compared to glucose [31]: 2.1 | Transcripts per million (rpm) [31]: 294.6 rpm | Log2 differential normalized TPM ratio compared to glucose [32]: 3.7 | Transcripts per million (rpm) [32]: 57.4 rpm | Log2 differential normalized TPM ratio compared to glucose [33]: 1.6 | Transcripts per million (rpm) [33]: 53.4 rpm | Log2 differential normalized TPM ratio compared to glucose (gene LBA1469 (UDP-glucose 4-epimerase)): 5 | Log2 differential normalized TPM ratio compared to glucose [34]: 0.6 | Transcripts per million (rpm) [34]: 30.6 rpm | Log2 differential normalized TPM ratio compared to glucose [35]: 1.4 | Transcripts per million (rpm) [35]: 1127.6 rpm | Log2 differential normalized TPM ratio compared to glucose [36]: 1.2 | Transcripts per million (rpm) [36]: 734.7 rpm | Log2 differential normalized TPM ratio compared to glucose [37]: −0.2 | Transcripts per million (rpm) [37]: 14 rpm | Log2 differential normalized TPM ratio compared to glucose [38]: 0.6 | Transcripts per million (rpm) [38]: 10.7 rpm | Log2 differential normalized TPM ratio compared to glucose [39]: 0.8 | Transcripts per million (rpm) [39]: 31.5 rpm | Log2 differential normalized TPM ratio compared to glucose [40]: 0.8 | Transcripts per million (rpm) [40]: 15.3 rpm | Log2 differential normalized TPM ratio compared to glucose [41]: 1.9 | Transcripts per million (rpm) [41]: 5636.3 rpm | Log2 differential normalized TPM ratio compared to glucose [42]: 2.8 | Transcripts per million (rpm) [42]: 117.6 rpm | Log2 differential normalized TPM ratio compared to glucose (gene LBA1796 (ABC exporter)): 2.5 | Transcripts per million (rpm) (gene LBA1796 (ABC exporter)): 52.4 rpm | Log2 differential normalized TPM ratio compared to glucose [43]: 2.4 | Transcripts per million (rpm) [43]: 43.9 rpm | Log2 differential normalized TPM ratio compared to glucose [44]: 0.2 | Transcripts per million (rpm) [44]: 31.9 rpm
